Test results reported in PMC7769008 (Journal of medicinal chemistry, 2020).

Conditions: pH 7.4

Row | Structure (SMILES) | PAMPA [×10⁻⁶ cm/s]
1 | Nc1nnc2n(CCc3ccccc3)c(=O)c3cc(F)ccc3n12 [Compound 16, 1-Amino-7-fluoro-4-phenethyl-[1,2,4]triazolo[4,3-a]quinazolin-5(4H)-one] | 885
2 | O=c1c2cc(F)ccc2n2cnnc2n1CCc1ccccc1 [Compound 18, 7-Fluoro-4-phenethyl-[1,2,4]triazolo[4,3-a]quinazolin-5(4H)-one] | 924
3 | CCn1c(=O)c2ccccc2n2c(=S)[nH]nc12 [Compound 20, 4-Ethyl-1-thioxo-2,4-dihydro-[1,2,4]triazolo[4,3-a]quinazolin-5(1H)-one] | 427
4 | O=c1c2cc(F)ccc2n2c(=S)[nH]nc2n1CCc1ccccc1 [Compound 40, 7-Fluoro-4-phenethyl-1-thioxo-2,4-dihydro-[1,2,4]triazolo[4,3-a]quinazolin-5(1H)-one] | 77.0
5 | O=c1c2cc(Br)ccc2n2c(=S)[nH]nc2n1CCc1ccccc1 [Compound 41, 7-Bromo-4-phenethyl-1-thioxo-2,4-dihydro-[1,2,4]triazolo[4,3-a]quinazolin-5(1H)-one] | 162
6 | CC(=O)Nc1ccc2c(c1)c(=O)n(CCc1ccccc1)c1n[nH]c(=S)n21 [Compound 44, N-(5-Oxo-4-phenethyl-1-thioxo-1,2,4,5-tetrahydro-[1,2,4]-triazolo[4,3-a]quinazolin-7-yl)acetamide] | 253
7 | CN(C)c1ccc2c(c1)c(=O)n(CCc1ccccc1)c1n[nH]c(=S)n21 [Compound 45, 7-(Dimethylamino)-4-phenethyl-1-thioxo-2,4-dihydro-[1,2,4]-triazolo[4,3-a]quinazolin-5(1H)-one] | 356
8 | O=c1c2ccc(F)cc2n2c(=S)[nH]nc2n1CCc1ccccc1 [Compound 47, 8-Fluoro-4-phenethyl-1-thioxo-2,4-dihydro-[1,2,4]triazolo[4,3-a]quinazolin-5(1H)-one] | 91.0
9 | O=c1c2cccc(F)c2n2c(=S)[nH]nc2n1CCc1ccccc1 [Compound 48, 9-Fluoro-4-phenethyl-1-thioxo-2,4-dihydro-[1,2,4]triazolo[4,3-a]quinazolin-5(1H)-one] | 141
10 | O=c1c2ccncc2n2c(=S)[nH]nc2n1CCc1ccccc1 [Compound 50, 4-Phenethyl-1-thioxo-2,4-dihydropyrido[4,3-e][1,2,4]triazolo-[4,3-a]pyrimidin-5(1H)-one] | 202
11 | O=c1c2cc(F)ccc2n2c(=S)[nH]nc2n1Cc1ccccc1 [Compound 52, 4-Benzyl-7-fluoro-1-thioxo-2,4-dihydro-[1,2,4]triazolo[4,3-a]-quinazolin-5(1H)-one] | 841
12 | O=c1c2cc(Cl)ccc2n2c(=S)[nH]nc2n1CCC(F)(F)F [Compound 55, 7-Chloro-1-thioxo-4-(3,3,3-trifluoropropyl)-2,4-dihydro-[1,2,4]-triazolo[4,3-a]quinazolin-5(1H)-one] | 257
13 | CNC(=S)N1CN(CCc2ccccc2)C(=O)c2cc(F)ccc21 [Compound 62, 6-Fluoro-N-methyl-4-oxo-3-phenethyl-3,4-dihydroquinazoline-1(2H)-carbothioamide] | 161
14 | O=c1c2cc(F)ccc2n2c(=S)[nH]nc2n1CCCO [Compound 66, 7-Fluoro-4-(3-hydroxypropyl)-1-thioxo-2,4-dihydro-[1,2,4]-triazolo[4,3-a]quinazolin-5(1H)-one] | 222
15 | CC(CN(C)C)n1c(=O)c2cc(F)ccc2n2c(=S)[nH]nc12 (stereo not drawn) [Compound 71, 4-(1-(Dimethylamino)propan-2-yl)-7-fluoro-1-thioxo-2,4-dihydro-[1,2,4]triazolo[4,3-a]quinazolin-5(1H)-one] | 186
16 | CC(=O)NCCCn1c(=O)c2cc(F)ccc2n2c(=S)[nH]nc12 [Compound 73, N-(3-(7-Fluoro-5-oxo-1-thioxo-1,2-dihydro-[1,2,4]triazolo[4,3-a]-quinazolin-4(5H)-yl)propyl)acetamide] | 18.0
17 | O=C(NCCCn1c(=O)c2cc(F)ccc2n2c(=S)[nH]nc12)c1ccccc1 [Compound 74, N-(3-(7-Fluoro-5-oxo-1-thioxo-1,2-dihydro-[1,2,4]triazolo[4,3-a]-quinazolin-4(5H)-yl)propyl)benzamide] | 267
18 | O=c1c2cc(F)ccc2n2c(=S)[nH]nc2n1CC1CC1 [Compound 79, 4-(Cyclopropylmethyl)-7-fluoro-1-thioxo-2,4-dihydro-[1,2,4]-triazolo[4,3-a]quinazolin-5(1H)-one] | 46.0

Row | Structure (SMILES) | PAMPA [×10⁻⁶ cm/s]
19 | O=c1c2cc(F)ccc2n2c(=S)[nH]nc2n1CCc1ccc(Cl)cc1 [Compound 82, 4-(4-Chlorophenethyl)-7-fluoro-1-thioxo-2,4-dihydro-[1,2,4]-triazolo[4,3-a]quinazolin-5(1H)-one] | <1
20 | O=c1c2cc(F)ccc2n2c(=S)[nH]nc2n1CCc1cccnc1 [Compound 84, 7-Fluoro-4-(2-(pyridin-3-yl)ethyl)-1-thioxo-2,4-dihydro-[1,2,4]-triazolo[4,3-a]quinazolin-5(1H)-one] | <1
21 | CC(C)(C)OC(=O)N1CC(CCn2c(=O)c3cc(F)ccc3n3c(=S)[nH]nc23)C1 [Compound 86, tert-Butyl 3-(2-(7-fluoro-5-oxo-1-thioxo-1,2-dihydro-[1,2,4]-triazolo[4,3-a]quinazolin-4(5H)-yl)ethyl)azetidine-1-carboxylate] | 229
22 | O=c1c2cc(F)ccc2n2c(=S)[nH]nc2n1CCN1CCCCC1 [Compound 88, 7-Fluoro-4-(2-(piperidin-1-yl)ethyl)-1-thioxo-2,4-dihydro-[1,2,4]-triazolo[4,3-a]quinazolin-5(1H)-one] | 358
23 | O=c1c2cc(F)ccc2n2c(=S)[nH]nc2n1CCN1CCC(F)(F)CC1 [Compound 89, 4-(2-(4,4-Difluoropiperidin-1-yl)ethyl)-7-fluoro-1-thioxo-2,4-di-hydro-[1,2,4]triazolo[4,3-a]quinazolin-5(1H)-one] | 234
24 | O=c1c2cc(F)ccc2n2c(=S)[nH]nc2n1CCN1CCOCC1 [Compound 90, 7-Fluoro-4-(2-morpholinoethyl)-1-thioxo-2,4-dihydro-[1,2,4]-triazolo[4,3-a]quinazolin-5(1H)-one] | 67.0
25 | O=c1c2cc(F)ccc2n2c(=S)[nH]nc2n1CCC1CCC(F)(F)CC1 [Compound 93, 4-(2-(4,4-Difluorocyclohexyl)ethyl)-7-fluoro-1-thioxo-2,4-dihydro-[1,2,4]triazolo[4,3-a]quinazolin-5(1H)-one] | 201
26 | CC(C)(C)OC(=O)NCCCCCC(=O)NCCCn1c(=O)c2cc(F)ccc2n2c(=S)[nH]nc12 [Compound 101, tert-Butyl (6-((3-(7-fluoro-5-oxo-1-thioxo-1,2-dihydro-[1,2,4]-triazolo[4,3-a]quinazolin-4(5H)-yl)propyl)amino)-6-oxohexyl)-carbamate] | 405
27 | O=C(O)CCC(=O)NCCCn1c(=O)c2cc(F)ccc2n2c(=S)[nH]nc12 [Compound 106, 4-((3-(7-Fluoro-5-oxo-1-thioxo-1,2-dihydro-[1,2,4]triazolo[4,3-a]quinazolin-4(5H)-yl)propyl)amino)-4-oxobutanoic Acid] | <1
28 | NS(=O)(=O)CCCC(=O)NCCCn1c(=O)c2cc(F)ccc2n2c(=S)[nH]nc12 [Compound 107, N-(3-(7-Fluoro-5-oxo-1-thioxo-1,2-dihydro-[1,2,4]triazolo[4,3-a]-quinazolin-4(5H)-yl)propyl)-4-sulfamoylbutanamide] | 3.0
29 | O=C(NCCCn1c(=O)c2cc(F)ccc2n2c(=S)[nH]nc12)C1CCCC1 [Compound 108, N-(3-(7-Fluoro-5-oxo-1-thioxo-1,2-dihydro-[1,2,4]triazolo[4,3-a]-quinazolin-4(5H)-yl)propyl)cyclopentanecarboxamide] | 155
30 | CC(C)(C)OC(=O)NC1CCC(C(=O)NCCCn2c(=O)c3cc(F)ccc3n3c(=S)[nH]nc23)CC1 (stereo not drawn) [Compound 110, tert-Butyl (4-((3-(7-fluoro-5-oxo-1-thioxo-1,2-dihydro-[1,2,4]-triazolo[4,3-a]quinazolin-4(5H)-yl)propyl)carbamoyl)cyclohexyl)-carbamate] | 330
31 | O=C(NCCCn1c(=O)c2cc(F)ccc2n2c(=S)[nH]nc12)C1CCOCC1 [Compound 115, N-(3-(7-Fluoro-5-oxo-1-thioxo-1,2-dihydro-[1,2,4]triazolo[4,3-a]-quinazolin-4(5H)-yl)propyl)tetrahydro-2H-pyran-4-carboxamide] | 8.0
32 | CN1CCN(CC(=O)NCCCn2c(=O)c3cc(F)ccc3n3c(=S)[nH]nc23)CC1 [Compound 117, N-(3-(7-Fluoro-5-oxo-1-thioxo-1,2-dihydro-[1,2,4]triazolo[4,3-a]-quinazolin-4(5H)-yl)propyl)-2-(4-methylpiperazin-1-yl)acetamide] | <1
33 | O=C(CN1CCOCC1)NCCCn1c(=O)c2cc(F)ccc2n2c(=S)[nH]nc12 [Compound 118, N-(3-(7-Fluoro-5-oxo-1-thioxo-1,2-dihydro-[1,2,4]triazolo[4,3-a]-quinazolin-4(5H)-yl)propyl)-2-morpholinoacetamide] | <1
34 | O=C(Cc1ccccc1)NCCCn1c(=O)c2cc(F)ccc2n2c(=S)[nH]nc12 [Compound 120, N-(3-(7-Fluoro-5-oxo-1-thioxo-1,2-dihydro-[1,2,4]triazolo[4,3-a]-quinazolin-4(5H)-yl)propyl)-2-phenylacetamide] | 248
35 | O=C(Cc1cccc(F)c1)NCCCn1c(=O)c2cc(F)ccc2n2c(=S)[nH]nc12 [Compound 122, N-(3-(7-Fluoro-5-oxo-1-thioxo-1,2-dihydro-[1,2,4]triazolo[4,3-a]-quinazolin-4(5H)-yl)propyl)-2-(3-fluorophenyl)acetamide] | 364
36 | O=C(Cc1cccc(Cl)c1)NCCCn1c(=O)c2cc(F)ccc2n2c(=S)[nH]nc12 [Compound 124, 2-(3-Chlorophenyl)-N-(3-(7-fluoro-5-oxo-1-thioxo-1,2-dihydro-[1,2,4]triazolo[4,3-a]quinazolin-4(5H)-yl)propyl)acetamide] | 861
